From ChEMBL document CHEMBL1159363, “New cytotoxic alkaloids from the wood of Vepris punctata from the Madagascar rainforest” (J Nat Prod, 2003)
≈ marks a conversion by molar mass, not a printed value.

tested on: A2780; experiment: Cytotoxicity against human A2780 cells; type: functional, cell-based

SMILES | IC50 [µg/mL]
COc1c2cc3c(cc2nc2occc12)OCO3 [MACULINE] | 4 (≈ 16.4 µM)
COc1ccc2c(OC)c3ccoc3nc2c1OC [SKIMMIANINE] | 4.2 (≈ 16.2 µM)
COc1c2c(cc3nc4occc4c(OC)c13)OCO2 | 2.8 (≈ 10.2 µM)
COc1c(OC)c(OC)c2c(OC)c3ccoc3nc2c1OC | 3.4 (≈ 10.6 µM)
COc1c2ccoc2nc2c(OC)c3c(cc12)OCO3 [FLINDERSIAMINE] | 3.3 (≈ 12.1 µM)
COc1cc2nc3occc3c(OC)c2cc1OC [KOKUSAGININE] | 3.5 (≈ 13.5 µM)
COc1c2c(c(OC)c3c(OC)c4ccoc4nc13)OCO2 | 3.5 (≈ 11.5 µM)
